PubChem BioAssay (NCI)
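How tested: cells in 96-well plates exposed to compound for 48 hours at five concentrations. At the TGI there is no net growth.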

Experiments:
Test in all cases: NCI tumour cell line growth inhibition, 48 h
[1] = tested on: RXF-631 renal
[2] = tested on: DMS 273 small cell lung
[3] = tested on: HOP-18 NSCLC
[4] = tested on: XF 498 CNS
[5] = tested on: DMS 114 small cell lung
[6] = tested on: KM20L2 colon
[7] = tested on: P388/ADR leukemia
[8] = tested on: SN12K1 renal
[9] = tested on: SNB-78 CNS
[10] = tested on: P388 leukemia

Compound	TGI [1] [µM]	TGI [2] [µM]	TGI [3] [µM]	TGI [4] [µM]	TGI [5] [µM]	TGI [6] [µM]	TGI [7] [µM]	TGI [8] [µM]	TGI [9] [µM]	TGI [10] [µM]
COC(=O)/C=C/c1cc(OC)c(OC)c(OC)c1	> 100	> 100	> 100	> 100	> 100	> 100				
O=C(O)C(CO)NC(=O)n1c2ccccc2c2ccccc21 (configuration not stated)		> 100	> 100	> 100	> 100					
O=C(N/N=C/c1cc(Br)cc(Br)c1[O-])c1ccccc1O.O=C(N/N=C/c1cc(Br)cc(Br)c1[O-])c1ccccc1O.[Fe+2]						17.4				
NC(N)=Nc1ncccc1[N+](=O)[O-]		> 100	> 100	> 100	30.5	70.2	> 100	> 100	> 100	> 100
C=CCOCCCCC(C(C)=O)C(=O)OC (configuration not stated)			> 100	> 100		> 100			> 100	
COc1c(Br)cc(CC(N)=O)c(O)c1Br	> 100	> 100	> 100	> 100	> 100	> 100			> 100	
COC(=O)C1CC2(c3ccccc3)C(=O)c3ccccc3N2O1 (configuration not stated)		> 100	> 100		> 100	> 100			> 100	
O=[N+]([O-])c1ccc(-c2ccc(-c3csc(Nc4ccccn4)n3)o2)cc1	> 100	> 100		49.9		> 100			> 100	
O=C(O)C(CS)N=c1c2ccccc2n(O)c2ccccc12 (configuration not stated)	> 100	> 100	> 100		> 100	> 100			> 100	
